Assay results reported in the NIST ThermoML archive (doi:10.1021/acs.jced.8b00176).
± gives the expanded uncertainty stated by the source.

What was measured:
[1] = 100 kPa, Liquid; for viscosity: Falling or rolling sphere viscometry; for speed of sound: Frequency=3 MHz, Single path-length method; for mass density: Vibrating tube method
[2] = xn = mol fraction of the nth substance listed; settings: 100 kPa, Liquid; for viscosity: Falling or rolling sphere viscometry; for speed of sound: Frequency=3 MHz, Single path-length method; for mass density: Vibrating tube method

CCCCn1cc[n+](C)c1.O=S(=O)([O-])C(F)(F)F [1-butyl-3-methylimidazolium trifluoromethanesulfonate]
[1]
Settings	mass density [kg/m3]	speed of sound [m/s]	viscosity [mPa·s]
298.15 K	1297.46 ± 2.4	1393.2 ± 2.8	82.38 ± 1.7
303.15 K	1293.46 ± 2.4	1382.8 ± 2.8	66.69 ± 1.2
308.15 K	1289.47 ± 2.4	1371.7 ± 2.8	52.86 ± 0.96
313.15 K	1285.47 ± 2.4	1360.7 ± 2.8	43.67 ± 0.96
318.15 K	1281.47 ± 2.4	1349.9 ± 2.8	36.29 ± 0.92
323.15 K	1277.48 ± 2.4	1338.8 ± 2.8	30.57 ± 0.88

CN(C)C=O [dimethylformamide] + CCCCn1cc[n+](C)c1.O=S(=O)([O-])C(F)(F)F
[2], x2 = 0
Settings	mass density [kg/m3]	speed of sound [m/s]	viscosity [mPa·s]
298.15 K	943.934 ± 2	1457.1 ± 2.2	0.81 ± 0.2
303.15 K	939.162 ± 2	1437.8 ± 2.2	0.77 ± 0.2
308.15 K	934.373 ± 2	1418.5 ± 2.2	0.72 ± 0.2
313.15 K	929.577 ± 2	1399.2 ± 2.2	0.69 ± 0.2
318.15 K	924.765 ± 2	1379.9 ± 2.2	0.65 ± 0.2
323.15 K	919.95 ± 2	1360.7 ± 2.2	0.62 ± 0.2

CC#N [acetonitrile]
[1]
Settings	mass density [kg/m3]	speed of sound [m/s]	viscosity [mPa·s]
298.15 K	776.714 ± 2	1278.5 ± 2.2	0.34
303.15 K	771.289 ± 2	1258.4 ± 2.2	0.32
308.15 K	765.833 ± 2	1238.2 ± 2.2	0.31
313.15 K	760.339 ± 2	1218 ± 2.2	0.3
318.15 K	754.815 ± 2	1197.9 ± 2.2	0.29
323.15 K	749.253 ± 2	1177.8 ± 2.2	0.28

CC#N [acetonitrile] + CCCCn1cc[n+](C)c1.O=S(=O)([O-])C(F)(F)F
[2], x2 = 0
Settings	mass density [kg/m3]	speed of sound [m/s]	viscosity [mPa·s]
298.15 K	776.714 ± 2	1278.5 ± 2.2	0.34
303.15 K	771.289 ± 2	1258.4 ± 2.2	0.32
308.15 K	765.833 ± 2	1238.2 ± 2.2	0.31
313.15 K	760.339 ± 2	1218 ± 2.2	0.3
318.15 K	754.815 ± 2	1197.9 ± 2.2	0.29
323.15 K	749.253 ± 2	1177.8 ± 2.2	0.28

CN(C)C=O [dimethylformamide]
[1]
Settings	mass density [kg/m3]	speed of sound [m/s]	viscosity [mPa·s]
298.15 K	943.934 ± 2	1457.1 ± 2.2	0.81 ± 0.2
303.15 K	939.162 ± 2	1437.8 ± 2.2	0.77 ± 0.2
308.15 K	934.373 ± 2	1418.5 ± 2.2	0.72 ± 0.2
313.15 K	929.577 ± 2	1399.2 ± 2.2	0.69 ± 0.2
318.15 K	924.765 ± 2	1379.9 ± 2.2	0.65 ± 0.2
323.15 K	919.95 ± 2	1360.7 ± 2.2	0.62 ± 0.2

CN(C)C=O [dimethylformamide] + CC#N
[2], x1 = 1
Settings	mass density [kg/m3]	speed of sound [m/s]	viscosity [mPa·s]
298.15 K	943.934 ± 2	1457.1 ± 2.2	0.81 ± 0.2
303.15 K	939.162 ± 2	1437.8 ± 2.2	0.77 ± 0.2
308.15 K	934.373 ± 2	1418.5 ± 2.2	0.72 ± 0.2
313.15 K	929.577 ± 2	1399.2 ± 2.2	0.69 ± 0.2
318.15 K	924.765 ± 2	1379.9 ± 2.2	0.65 ± 0.2
323.15 K	919.95 ± 2	1360.7 ± 2.2	0.62 ± 0.2
